Literature values as cited in patent US20150276574A1, “CELL ANALYSIS METHOD” (SYSMEX CORPORATION, priority 2014, published 2015).

Conditions: not given

Molecule | Solubility in 100 g of water at 20° C.
CC(C)=CC(=O)O [3-methylcrotonic acid] | ≥ 2 g

Same assay, conditions: 100 g of water, 20° C.

Molecule | Solubility in 100 g of water at 20° C.
O=C(O)CCCC(=O)O [glutaric acid] | 43 g
CC1=CC(=O)OC1=O [citraconic anhydride] | ≥ 10 g
CCC(O)C(=O)O (centres unmarked) [2-hydroxybutyric acid] | ≥ 5 g

Other lines, results leading:

Solubility in 100 g of water at 20° C. | Molecule
20 g | NC(=O)NCCC[C@H](N)C(=O)O [citrulline]
5 g | O=C(O)CC(O)C(=O)O (centres unmarked) [malic acid]
44 g | O=C(O)/C=C\C(=O)O [maleic acid]
≥ 5 g | aminobutanoic acid
